Results as given in ChEMBL document CHEMBL1136570, “Synthesis and dopamine transporter affinity of chiral 1-[2-[bis(4-fluorophenyl)methoxy]ethyl]-4-(2-hydroxypropyl)piperazines as potential cocaine abuse therapeutic agents” (Bioorg Med Chem Lett, 2003).

Assays:
[1] = biological target: Sodium-dependent dopamine transporter (Rattus norvegicus, UniProt P23977); experiment: Binding affinity for dopamine transporter (DAT)
[2] = biological target: Sodium-dependent serotonin transporter (Rattus norvegicus, UniProt P31652); experiment: Binding affinity for serotonin transporter (SERT)
Sodium-dependent serotonin transporter, sequence (P31652 whole entry): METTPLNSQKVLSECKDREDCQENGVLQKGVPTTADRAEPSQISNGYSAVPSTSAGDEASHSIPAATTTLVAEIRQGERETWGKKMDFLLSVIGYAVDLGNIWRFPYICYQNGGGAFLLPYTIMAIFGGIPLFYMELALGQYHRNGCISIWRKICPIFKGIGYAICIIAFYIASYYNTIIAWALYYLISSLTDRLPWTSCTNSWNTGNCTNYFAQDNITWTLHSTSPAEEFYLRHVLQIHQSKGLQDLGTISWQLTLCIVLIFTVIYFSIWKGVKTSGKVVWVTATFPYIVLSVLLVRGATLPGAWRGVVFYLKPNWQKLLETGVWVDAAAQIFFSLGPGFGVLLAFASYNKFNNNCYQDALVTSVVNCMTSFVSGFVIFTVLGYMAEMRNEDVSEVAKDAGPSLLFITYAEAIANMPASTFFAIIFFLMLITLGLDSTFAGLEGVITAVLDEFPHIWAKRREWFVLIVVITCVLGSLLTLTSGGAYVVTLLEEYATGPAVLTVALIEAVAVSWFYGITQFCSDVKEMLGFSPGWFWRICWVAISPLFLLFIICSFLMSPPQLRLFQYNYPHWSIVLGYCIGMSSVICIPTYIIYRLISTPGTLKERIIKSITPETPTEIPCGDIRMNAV

[3] = biological target: Monoamine transporters; serotonin & dopamine (Rattus norvegicus) (UniProt P31652+P23977); experiment: Selectivity expressed as ratio of affinity for SERT/DAT; type: protein assay
Monoamine transporters; serotonin & dopamine (Rattus norvegicus), sequence (P23977 whole entry, looked up): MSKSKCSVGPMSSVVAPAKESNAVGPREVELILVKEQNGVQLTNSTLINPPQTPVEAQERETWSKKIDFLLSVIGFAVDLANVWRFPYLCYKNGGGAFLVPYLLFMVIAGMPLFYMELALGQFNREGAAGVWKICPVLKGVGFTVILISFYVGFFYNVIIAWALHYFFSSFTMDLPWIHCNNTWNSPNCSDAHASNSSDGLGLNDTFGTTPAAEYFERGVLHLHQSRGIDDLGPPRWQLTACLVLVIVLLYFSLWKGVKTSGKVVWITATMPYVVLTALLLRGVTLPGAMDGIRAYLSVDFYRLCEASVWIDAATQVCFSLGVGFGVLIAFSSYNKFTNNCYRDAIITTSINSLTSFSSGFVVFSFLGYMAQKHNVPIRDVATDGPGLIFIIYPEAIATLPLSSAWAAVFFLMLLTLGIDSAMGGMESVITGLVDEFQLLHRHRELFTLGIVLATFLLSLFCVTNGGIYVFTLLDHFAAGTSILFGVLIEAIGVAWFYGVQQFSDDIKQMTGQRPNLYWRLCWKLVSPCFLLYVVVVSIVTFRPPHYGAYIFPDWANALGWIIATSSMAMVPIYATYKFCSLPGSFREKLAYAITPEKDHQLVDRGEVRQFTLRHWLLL
Monoamine transporters; serotonin & dopamine (Rattus norvegicus), sequence (P31652 whole entry, looked up): as the sequence (P31652 whole entry) above

Sodium-dependent dopamine transporter, sequence (P23977 whole entry): as the sequence (P23977 whole entry, looked up) above

## C[C@H](O)CN1CCN(CCOC(c2ccccc2)c2ccccc2)CC1
[1]
  Ki: 48 nM
[2]
  Ki: 10400 nM
[3]
  Ratio: 217

## C[C@H](O)CN1CCN(CCOC(c2ccc(F)cc2)c2ccc(F)cc2)CC1
[1]
  Ki: 23 nM
[2]
  Ki: 981 nM
[3]
  Ratio: 43

## O[C@@H](Cc1ccccc1)CN1CCN(CCOC(c2ccccc2)c2ccccc2)CC1
[3]
  Ratio: 939

## CC(O)(CN1CCN(CCOC(c2ccc(F)cc2)c2ccc(F)cc2)CC1)c1ccccc1 (racemic)
[1]
  Ki: 20 nM
[2]
  Ki: 298 nM
[3]
  Ratio: 15

## C[C@@H](O)CN1CCN(CCOC(c2ccccc2)c2ccccc2)CC1
[1]
  Ki: 44 nM
[2]
  Ki: 12900 nM
[3]
  Ratio: 293

## C[C@](O)(CN1CCN(CCOC(c2ccc(F)cc2)c2ccc(F)cc2)CC1)c1ccccc1
[1]
  Ki: 140 nM
[2]
  Ki: 520 nM
[3]
  Ratio: 4

## O[C@@H](Cc1ccccc1)CN1CCN(CCOC(c2ccc(F)cc2)c2ccc(F)cc2)CC1
[3]
  Ratio: 307

## C[C@@H](O)CN1CCN(CCOC(c2ccc(F)cc2)c2ccc(F)cc2)CC1
[1]
  Ki: 76 nM
[2]
  Ki: 588 nM
[3]
  Ratio: 8

## CCCN1CCN(CCOC(c2ccc(F)cc2)c2ccc(F)cc2)CC1
[1]
  Ki: 40 nM
[2]
  Ki: 888 nM
[3]
  Ratio: 22

## OC(Cc1ccccc1)CN1CCN(CCOC(c2ccc(F)cc2)c2ccc(F)cc2)CC1 (racemic)
[3]
  Ratio: 54

## CCN1CCN(CCOC(c2ccc(F)cc2)c2ccc(F)cc2)CC1
[1]
  Ki: 34 nM
[2]
  Ki: 2090 nM
[3]
  Ratio: 61

## O[C@H](Cc1ccccc1)CN1CCN(CCOC(c2ccc(F)cc2)c2ccc(F)cc2)CC1
[3]
  Ratio: 14

## O[C@H](Cc1ccccc1)CN1CCN(CCOC(c2ccccc2)c2ccccc2)CC1
[3]
  Ratio: 73

## C=CCN1CCN(CCOC(c2ccc(F)cc2)c2ccc(F)cc2)CC1
[1]
  Ki: 65 nM
[2]
  Ki: 1650 nM
[3]
  Ratio: 25

## C[C@@](O)(CN1CCN(CCOC(c2ccc(F)cc2)c2ccc(F)cc2)CC1)c1ccccc1
[1]
  Ki: 5.6 nM
[2]
  Ki: 281 nM
[3]
  Ratio: 50

## C[C@H](O)[C@@H](c1ccccc1)N1CCN(CCOC(c2ccc(F)cc2)c2ccc(F)cc2)CC1
[1]
  Ki: 36 nM
[2]
  Ki: 583 nM
[3]
  Ratio: 16

## C[C@@H](O)[C@H](c1ccccc1)N1CCN(CCOC(c2ccc(F)cc2)c2ccc(F)cc2)CC1
[1]
  Ki: 13 nM
[2]
  Ki: 565 nM
[3]
  Ratio: 43
